The source of these data is PMC9490060, “Synthesis and evaluation of anticancer activity of quillaic acid derivatives: A cell cycle arrest and apoptosis inducer through NF-κB and MAPK pathways” (Frontiers in Chemistry, 2022).

Assay [1] relates to L02 (human normal liver cells). Description: Cytotoxicity against normal cell line L02. Format: cell-based. The source says:
The lack of selectivity between normal and cancer cells is one of the main limitations of antitumor drugs ([Dy and Adjei, 2013]). Therefore, we evaluated the cytotoxicity of compounds B2, and E in normal cell lines L02 (human normal liver cells) to determine the selectivity index (ratio of cytotoxicity in L02 cells compared to that in cancer cells). […] Therefore, this compound was chosen for further biological studies.
The propidium iodide (PI) and Annexin V-FITC apoptosis detection kit were purchased from Invitrogen (Eugene, OR, United States). 3-(4,5-Dimethylthiazol-2-yl)-2,5-diphenyl-2H-tetrazolium bromide (MTT) was purchased from Sigma-Aldrich Co. (St. Louis, MO, United States). All human cell lines were used in this study, colorectal cancer cell HCT116, colorectal cancer cell SW620, breast cancer cell MCF-7, liver hepatocellular carcinoma cell BEL7402, liver hepatocellular carcinoma HepG2 and normal liver cell L02 were initially purchased from American Type Culture Collection (ATCC, Manassas, VA, United States). RPMI-1640 media, Dulbecco’s modified Eagle’s medium (DMEM), and foetal bovine serum (FBS) were provided from Gibco Company (Grand Island, NY, United States). Cell line MCF-7 and HepG2 were cultivated in DMEM containing 10% (v/v) heat-inactivated FBS, 100 units/ml penicillin and […] streptomycin (Grand Island, NY, United States). Cell lines HCT116, BEL7402, SW620, and L02 were cultivated in RPMI 1640 medium containing 10% (v/v) heat-inactivated FBS, 100 units/ml penicillin, and […] streptomycin. The cells were incubated at 37°C under a 5% CO2 and 90% relative humidity (RH) atmosphere.
Stock solutions were prepared by diluting target compounds in DMSO at concentrations (1.25, 2.5, 5, and 10 mM). The stock solution was then diluted (1.25, 2.5, 5, and 10 μM) with culture medium, and the concentration of DMSO was controlled not to exceed 0.1%.
Place the cells in a 96-well plate at an appropriate density to ensure exponential growth (1 × 10^4–1.2×10^4 cells per well) throughout the experiment, and then allow the cells to adhere for 24 h. The cells were then treated with continuous concentrations of each compound (1.25, 2.5, 5, and 10 μM) for 48 h. After 48 h of incubation, 15 μl of MTT solution was added to each well, and the final concentration was 2 mg/ml. Then incubate for another 4 h. After incubation, remove the MTT solution and add […] of DMSO to each well for staining. Shake vigorously for 10 min at room temperature to ensure complete dissolution. The optical density (OD) was read on a microplate reader (ELx 800, BioTek, Highland Park, Winooski, VT, United States) with a wavelength of 492 nm, and then the data was analyzed.

A further assay relates to Bax. As to the kind of experiment: Western blot, Bax expression. Format: cell-based, human. The conditions noted are these: HCT116, 10 μM, 24 h. As for the experimental part: The Bcl-2 protein family (including the anti-apoptotic protein Bcl-2 and the pro-apoptotic protein Bax) is a group of key apoptotic proteins that play an important role in the regulation of apoptosis ([Han et al., 2013]; [Zhang and Saghatelian, 2013]; [Zheng et al., 2021]). HCT116 cells were treated with different concentrations (2.5, 5, and 10 μM) of E to detect the expression of Bax and Bcl-2 proteins.
FIGURE 7 Effect of compound E on the levels of Bax, and Bcl-2 in HCT116 cells. Cells were pretreated with the various concentrations of compound E (2.5, 5 and 10 μM) for 24 h. The expression of Bax, and Bcl-2 were analyzed by Western blot. ***p < 0.001, **p < 0.01, *p < 0.05 vs. control group. The error bars represent the mean ± SD for three independent experiments.
(§1) HCT116 cells were cultured with different concentrations of compound E for 24 h. Then, the floating cells were collected and washed twice with ice-cold PBS. Add cold RIPA buffer. After the cells were lysed on ice for 20 min, the lysate was centrifuged at 12,000 rpm for 15 min at 4°C. The BCA method determines the protein concentration. Separated by SDS/PAGE electrophoresis and transferred to a nitrocellulose filter membrane for Western blot analysis. The membrane was blocked with PBS containing 5% skim milk at room temperature for 2 h. […] The protein is detected by electrochemiluminescence (Bio-Rad, CA, United State).
(In western blotting, separated proteins are transferred to a membrane and probed.)

The test system of a further assay is NF-κB p65. Description: Western blot, NF-κB signaling pathway: NF-κB p65. Particulars: HCT116, 2.5, 5 and 10 μM, 24 h. Format: cell-based, human.
Description: The NF-κB pathway plays an important role in a variety of cellular functions, including cell growth, apoptosis, and tumorigenesis ([Hwang et al., 2012]). Interfering with NF-κB signaling can inhibit tumor cell proliferation and metastasis ([Yenmis et al., 2021]). Therefore, NF-κB inhibitors are considered as potential anticancer drugs ([Wang et al., 2017]).
FIGURE 8 Effect of compound E on NF-κB signaling pathway in HCT116 cells. Cells were pretreated with the various concentrations of compound E (2.5, 5 and 10 μM) for 24 h. The expression of phospho-NF-κB p65, NF-κB p65, phospho-IκB, IκB were analyzed by Western blot. ***p < 0.001, **p < 0.01, *p < 0.05 vs. control group. The error bars represent the mean ± SD for three independent experiments.
as §1

The test system of the next assay is JNK. Description: Western blot, MAPK signaling pathway: JNK. Format: cell-based, human. Particulars: HCT116, 10 μM, 24 h. The source says: (§2) Extracellular signal-regulated kinases are the most closely related MAPK. MAPK, a family of serine/threonine protein kinases, is also an important transmitter of signaling from the cell surface to the nucleus, and it is involved in the regulation of many physiological processes, including apoptosis ([Bian et al., 2021]). The MAPK pathway has been implicated in regulating tumor angiogenesis, proliferation, metastasis and invasion ([Ko et al., 2017]). MAPK family is mainly composed of ERK, p38 and JNK subfamily.
(§3) FIGURE 9 Effect of compound E on […] in HCT116 cells. Cells were pretreated with the various concentrations of compound E (2.5, 5 and 10 μM) for 24 h. The expression of phospho-ERK, ERK, phospho-JNK, JNK, phospho-p38, p38 were analyzed by Western blot. ***p < 0.001, **p < 0.01, *p < 0.05 vs. control group. The error bars represent the mean ± SD for three independent experiments.
(§4) HCT116 cells were cultured with different concentrations of compound E for 24 h. Then, the floating cells were collected and washed twice with ice-cold PBS. Add cold RIPA buffer. After the cells were lysed on ice for 20 min, the lysate was centrifuged at 12,000 rpm for 15 min at 4°C. The BCA method determines the protein concentration. […] The protein is detected by electrochemiluminescence (Bio-Rad, CA, United State).

The test system of a further assay is p38. Description: Western blot, MAPK signaling pathway: p38. Format: cell-based, human. Particulars: HCT116, 10 μM, 24 h.
Description: as §2, §3, §4

Where only a bound is given, the exact number is not on record here.

What is called IC50 is the concentration that inhibits the measured activity by half. Higher therefore signals weaker potency. With `CC1(C)CC[C@]2(C(=O)OCCn3nnnc3-c3ccccc3)[C@H](O)C[C@]3(C)C(=CC[C@@H]4[C@@]5(C)CC[C@H](O)[C@@](C)(C=O)[C@@H]5CC[C@]43C)[C@@H]2C1` [Compound E, 2-(5-phenyl-1H-tetrazol-1-yl)ethyl (4aR,5R,6aS,6bR,8aR,9S,10S,12aR,12bR,14bS)-9-formyl-5,10-dihydroxy-2,2,6a,6b,9,12a-hexamethyl-1,3,4,5,6,6a,6b,7,8,8a,9,10,11,12,12a,12b,13,14b-octadecahydropicene-4a (2H)-carboxylate], in assay [1] (Homo sapiens, normal cell line L02), the IC50 was over 10 µM. Moreover, the “Selectivity index BEL7402” value in assay [1] (IC50 on normal cells (L02)/IC50 on tumour cells (BEL7402)) was over 1.45. The “Selectivity index HCT116” value in assay [1] (IC50 on normal cells (L02)/IC50 on tumour cells (HCT116)) is listed as over 4.06. Besides, the “Selectivity index HepG2” value in assay [1] (IC50 on normal cells (L02)/IC50 on tumour cells (HepG2)) was over 1.12. Besides, in assay [1] (IC50 on normal cells (L02)/IC50 on tumour cells (SW620)), the “Selectivity index SW620” value is over 2.13. For the same molecule, the “expression of Bax” value with Bax was “significantly increased”. For the same molecule, in the assay with NF-κB p65, the “effect on NF-κB p65” value is given as “no inhibitory effect”. Further, the “phosphorylation level of JNK” value with JNK is “down-regulated”. Moreover, in the assay on p38, the “phosphorylation level of p38” value was “down-regulated”.
